These results are taken from ChEMBL document CHEMBL1201862, “PubChem BioAssay data set” (2004).

The source made the active and inactive calls.

What all share (type): functional
The target in assay [1] is T1, Sentrin-specific protease 8 (Homo sapiens, UniProt Q96LD8).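 Note: luminescence read-out of SENP8 inhibition, dose-response confirmation following an ultra-high-throughput screen.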
T1 sequence (Q96LD8 whole entry): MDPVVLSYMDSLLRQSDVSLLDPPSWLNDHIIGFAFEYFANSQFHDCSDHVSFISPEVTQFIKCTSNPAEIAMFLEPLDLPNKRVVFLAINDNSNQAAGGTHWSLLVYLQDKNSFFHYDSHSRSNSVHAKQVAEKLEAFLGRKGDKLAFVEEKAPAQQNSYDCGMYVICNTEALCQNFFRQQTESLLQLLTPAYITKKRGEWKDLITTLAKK

The target in the next assay is T2, Caspase-3 (Homo sapiens, UniProt P42574).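 Note: Dose-response selectivity test against caspase-3 for candidate inhibitors of sentrin-specific proteases (SENPs).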
T2 sequence (P42574 whole entry): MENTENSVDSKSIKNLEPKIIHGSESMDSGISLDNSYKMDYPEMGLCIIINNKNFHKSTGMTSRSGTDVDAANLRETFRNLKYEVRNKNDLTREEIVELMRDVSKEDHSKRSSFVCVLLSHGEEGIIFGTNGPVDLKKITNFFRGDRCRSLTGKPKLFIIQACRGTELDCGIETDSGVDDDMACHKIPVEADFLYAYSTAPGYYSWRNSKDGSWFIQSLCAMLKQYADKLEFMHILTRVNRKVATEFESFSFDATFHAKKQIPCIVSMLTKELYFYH

Assay [2] concerns the target Leucine-rich repeat serine/threonine-protein kinase 2 (Homo sapiens, UniProt Q5S007).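 Note: value from a broad kinome-wide panel profiling study in which LRRK2 was one of the kinases tested.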
The target in assay [3] is T3, Inhibitor of nuclear factor kappa-B kinase subunit epsilon (Homo sapiens, UniProt Q14164).
T3 sequence (Q14164 whole entry): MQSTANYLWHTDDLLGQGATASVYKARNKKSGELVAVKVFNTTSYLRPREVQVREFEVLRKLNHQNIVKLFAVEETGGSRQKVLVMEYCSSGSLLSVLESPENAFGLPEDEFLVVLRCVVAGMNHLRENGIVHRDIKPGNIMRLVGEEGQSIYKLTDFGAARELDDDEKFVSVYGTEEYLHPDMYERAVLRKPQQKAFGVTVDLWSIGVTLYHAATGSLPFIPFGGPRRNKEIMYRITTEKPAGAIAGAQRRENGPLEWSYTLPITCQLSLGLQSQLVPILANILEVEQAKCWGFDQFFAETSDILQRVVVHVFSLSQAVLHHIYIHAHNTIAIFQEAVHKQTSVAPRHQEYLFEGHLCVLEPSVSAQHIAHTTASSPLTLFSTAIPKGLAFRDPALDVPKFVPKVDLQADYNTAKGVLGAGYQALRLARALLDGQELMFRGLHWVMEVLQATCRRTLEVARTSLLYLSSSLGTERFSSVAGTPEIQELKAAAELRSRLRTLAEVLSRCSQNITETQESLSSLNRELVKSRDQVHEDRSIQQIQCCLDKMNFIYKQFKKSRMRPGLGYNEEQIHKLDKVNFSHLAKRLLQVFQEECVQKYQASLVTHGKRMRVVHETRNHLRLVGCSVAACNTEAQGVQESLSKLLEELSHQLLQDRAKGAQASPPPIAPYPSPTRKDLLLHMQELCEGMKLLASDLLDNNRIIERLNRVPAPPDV
Put plainly: Navigating the Kinome. Panel member name: IKBKE.

Assay [4] addresses Cyclin-dependent kinase 5 (Homo sapiens, UniProt Q00535).
A further assay concerns the target T4, Aurora kinase A (Homo sapiens, UniProt O14965).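 Note: value from the Navigating the Kinome kinase panel profiling, panel entry STK6.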
T4 sequence (O14965 whole entry): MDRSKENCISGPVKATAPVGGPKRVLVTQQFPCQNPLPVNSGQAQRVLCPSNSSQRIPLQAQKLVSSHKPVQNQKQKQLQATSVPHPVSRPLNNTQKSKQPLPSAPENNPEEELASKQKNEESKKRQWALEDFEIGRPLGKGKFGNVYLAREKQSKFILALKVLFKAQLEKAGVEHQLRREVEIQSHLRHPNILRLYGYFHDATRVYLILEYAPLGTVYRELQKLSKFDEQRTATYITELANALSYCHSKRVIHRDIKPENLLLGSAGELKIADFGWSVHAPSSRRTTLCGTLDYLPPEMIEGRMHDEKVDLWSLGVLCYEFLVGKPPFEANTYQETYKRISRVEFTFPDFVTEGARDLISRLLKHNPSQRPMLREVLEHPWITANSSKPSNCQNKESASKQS

The target of the next assay is LIM domain kinase 1 (Homo sapiens, UniProt P53667). Put plainly: Navigating the Kinome. Panel member name: LIMK1.
The target in assay [5] is ALK tyrosine kinase receptor (Homo sapiens, UniProt Q9UM73).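 Note: ALK tested as one member of a kinase panel screen.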
Sequence of ALK tyrosine kinase receptor (Q9UM73 whole entry): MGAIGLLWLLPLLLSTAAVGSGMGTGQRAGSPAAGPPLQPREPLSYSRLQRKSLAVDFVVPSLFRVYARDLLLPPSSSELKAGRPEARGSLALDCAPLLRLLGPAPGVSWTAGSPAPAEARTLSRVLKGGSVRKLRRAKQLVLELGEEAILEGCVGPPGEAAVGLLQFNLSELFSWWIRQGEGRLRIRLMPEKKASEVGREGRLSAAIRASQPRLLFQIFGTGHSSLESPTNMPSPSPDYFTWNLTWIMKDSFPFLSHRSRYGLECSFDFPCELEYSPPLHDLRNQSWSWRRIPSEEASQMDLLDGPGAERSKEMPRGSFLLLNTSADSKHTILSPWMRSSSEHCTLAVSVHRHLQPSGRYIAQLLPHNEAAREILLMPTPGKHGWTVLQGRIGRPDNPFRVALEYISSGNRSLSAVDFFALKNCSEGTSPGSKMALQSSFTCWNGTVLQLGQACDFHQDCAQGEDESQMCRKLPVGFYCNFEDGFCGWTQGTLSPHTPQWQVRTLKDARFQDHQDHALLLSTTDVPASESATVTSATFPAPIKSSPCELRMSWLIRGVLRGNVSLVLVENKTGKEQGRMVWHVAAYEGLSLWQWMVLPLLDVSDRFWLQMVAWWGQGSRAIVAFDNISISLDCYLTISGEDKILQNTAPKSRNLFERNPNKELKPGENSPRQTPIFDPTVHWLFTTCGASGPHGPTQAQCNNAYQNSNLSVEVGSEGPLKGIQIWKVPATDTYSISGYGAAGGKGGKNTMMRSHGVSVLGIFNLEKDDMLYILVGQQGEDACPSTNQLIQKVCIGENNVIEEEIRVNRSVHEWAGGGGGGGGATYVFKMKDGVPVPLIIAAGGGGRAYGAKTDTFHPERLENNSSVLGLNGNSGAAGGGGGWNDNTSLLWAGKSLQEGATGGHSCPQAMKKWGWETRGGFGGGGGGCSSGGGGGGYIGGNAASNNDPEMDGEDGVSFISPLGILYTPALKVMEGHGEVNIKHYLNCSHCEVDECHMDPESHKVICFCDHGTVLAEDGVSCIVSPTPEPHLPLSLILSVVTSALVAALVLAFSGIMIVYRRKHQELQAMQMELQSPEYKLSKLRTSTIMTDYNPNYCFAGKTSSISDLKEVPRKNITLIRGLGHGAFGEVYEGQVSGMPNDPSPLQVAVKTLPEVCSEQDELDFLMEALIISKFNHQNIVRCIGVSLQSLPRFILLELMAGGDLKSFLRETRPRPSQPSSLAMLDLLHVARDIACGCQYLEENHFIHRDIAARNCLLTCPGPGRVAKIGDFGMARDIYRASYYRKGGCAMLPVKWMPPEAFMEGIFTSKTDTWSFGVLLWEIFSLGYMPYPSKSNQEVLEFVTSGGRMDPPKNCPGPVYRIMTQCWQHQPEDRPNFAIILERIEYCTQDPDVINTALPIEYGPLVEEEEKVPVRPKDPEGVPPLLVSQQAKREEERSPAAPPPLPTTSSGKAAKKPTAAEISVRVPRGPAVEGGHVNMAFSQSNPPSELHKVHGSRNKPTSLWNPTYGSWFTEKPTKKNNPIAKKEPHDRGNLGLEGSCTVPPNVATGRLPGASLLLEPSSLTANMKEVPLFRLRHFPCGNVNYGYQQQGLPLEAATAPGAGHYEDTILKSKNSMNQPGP
Assay [6] concerns the target Macrophage colony-stimulating factor 1 receptor (Homo sapiens, UniProt P07333).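 Note: value comes from the Navigating the Kinome screening panel, CSF1R member.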
The target in assay [7] is Macrophage-stimulating protein receptor (Homo sapiens, UniProt Q04912). The assay is described as follows: Navigating the Kinome. Panel member name: MST1R.
Assay [8] addresses Dual specificity tyrosine-phosphorylation-regulated kinase 1A (Homo sapiens, UniProt Q13627).
For assay [9], the target named is BDNF/NT-3 growth factors receptor (Homo sapiens, UniProt Q16620).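 Note: NTRK2 measured as one member of a broad kinome-wide kinase profiling panel.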
Sequence of BDNF/NT-3 growth factors receptor (Q16620 whole entry): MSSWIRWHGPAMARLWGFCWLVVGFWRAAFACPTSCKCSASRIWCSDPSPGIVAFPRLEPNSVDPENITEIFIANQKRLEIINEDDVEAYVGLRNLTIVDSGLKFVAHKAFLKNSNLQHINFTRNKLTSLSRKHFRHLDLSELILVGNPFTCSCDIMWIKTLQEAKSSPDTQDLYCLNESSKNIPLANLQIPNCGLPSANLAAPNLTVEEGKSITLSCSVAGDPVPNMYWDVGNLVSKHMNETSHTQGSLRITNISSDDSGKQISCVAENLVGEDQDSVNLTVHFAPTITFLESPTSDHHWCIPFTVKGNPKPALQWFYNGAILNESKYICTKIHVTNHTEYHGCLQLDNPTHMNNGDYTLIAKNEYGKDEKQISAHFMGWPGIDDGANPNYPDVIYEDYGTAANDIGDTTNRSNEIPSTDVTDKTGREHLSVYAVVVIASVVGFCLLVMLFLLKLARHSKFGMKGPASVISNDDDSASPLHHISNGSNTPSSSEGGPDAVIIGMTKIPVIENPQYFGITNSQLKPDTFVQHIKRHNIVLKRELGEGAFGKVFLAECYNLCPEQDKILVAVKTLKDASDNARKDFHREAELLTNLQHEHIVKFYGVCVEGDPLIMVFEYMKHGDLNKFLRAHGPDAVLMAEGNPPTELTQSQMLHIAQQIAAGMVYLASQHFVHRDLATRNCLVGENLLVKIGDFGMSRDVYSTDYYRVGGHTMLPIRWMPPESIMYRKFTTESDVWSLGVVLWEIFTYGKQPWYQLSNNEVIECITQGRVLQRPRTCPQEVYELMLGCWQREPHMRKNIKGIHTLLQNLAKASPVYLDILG

Sequence of Leucine-rich repeat serine/threonine-protein kinase 2 (Q5S007 whole entry): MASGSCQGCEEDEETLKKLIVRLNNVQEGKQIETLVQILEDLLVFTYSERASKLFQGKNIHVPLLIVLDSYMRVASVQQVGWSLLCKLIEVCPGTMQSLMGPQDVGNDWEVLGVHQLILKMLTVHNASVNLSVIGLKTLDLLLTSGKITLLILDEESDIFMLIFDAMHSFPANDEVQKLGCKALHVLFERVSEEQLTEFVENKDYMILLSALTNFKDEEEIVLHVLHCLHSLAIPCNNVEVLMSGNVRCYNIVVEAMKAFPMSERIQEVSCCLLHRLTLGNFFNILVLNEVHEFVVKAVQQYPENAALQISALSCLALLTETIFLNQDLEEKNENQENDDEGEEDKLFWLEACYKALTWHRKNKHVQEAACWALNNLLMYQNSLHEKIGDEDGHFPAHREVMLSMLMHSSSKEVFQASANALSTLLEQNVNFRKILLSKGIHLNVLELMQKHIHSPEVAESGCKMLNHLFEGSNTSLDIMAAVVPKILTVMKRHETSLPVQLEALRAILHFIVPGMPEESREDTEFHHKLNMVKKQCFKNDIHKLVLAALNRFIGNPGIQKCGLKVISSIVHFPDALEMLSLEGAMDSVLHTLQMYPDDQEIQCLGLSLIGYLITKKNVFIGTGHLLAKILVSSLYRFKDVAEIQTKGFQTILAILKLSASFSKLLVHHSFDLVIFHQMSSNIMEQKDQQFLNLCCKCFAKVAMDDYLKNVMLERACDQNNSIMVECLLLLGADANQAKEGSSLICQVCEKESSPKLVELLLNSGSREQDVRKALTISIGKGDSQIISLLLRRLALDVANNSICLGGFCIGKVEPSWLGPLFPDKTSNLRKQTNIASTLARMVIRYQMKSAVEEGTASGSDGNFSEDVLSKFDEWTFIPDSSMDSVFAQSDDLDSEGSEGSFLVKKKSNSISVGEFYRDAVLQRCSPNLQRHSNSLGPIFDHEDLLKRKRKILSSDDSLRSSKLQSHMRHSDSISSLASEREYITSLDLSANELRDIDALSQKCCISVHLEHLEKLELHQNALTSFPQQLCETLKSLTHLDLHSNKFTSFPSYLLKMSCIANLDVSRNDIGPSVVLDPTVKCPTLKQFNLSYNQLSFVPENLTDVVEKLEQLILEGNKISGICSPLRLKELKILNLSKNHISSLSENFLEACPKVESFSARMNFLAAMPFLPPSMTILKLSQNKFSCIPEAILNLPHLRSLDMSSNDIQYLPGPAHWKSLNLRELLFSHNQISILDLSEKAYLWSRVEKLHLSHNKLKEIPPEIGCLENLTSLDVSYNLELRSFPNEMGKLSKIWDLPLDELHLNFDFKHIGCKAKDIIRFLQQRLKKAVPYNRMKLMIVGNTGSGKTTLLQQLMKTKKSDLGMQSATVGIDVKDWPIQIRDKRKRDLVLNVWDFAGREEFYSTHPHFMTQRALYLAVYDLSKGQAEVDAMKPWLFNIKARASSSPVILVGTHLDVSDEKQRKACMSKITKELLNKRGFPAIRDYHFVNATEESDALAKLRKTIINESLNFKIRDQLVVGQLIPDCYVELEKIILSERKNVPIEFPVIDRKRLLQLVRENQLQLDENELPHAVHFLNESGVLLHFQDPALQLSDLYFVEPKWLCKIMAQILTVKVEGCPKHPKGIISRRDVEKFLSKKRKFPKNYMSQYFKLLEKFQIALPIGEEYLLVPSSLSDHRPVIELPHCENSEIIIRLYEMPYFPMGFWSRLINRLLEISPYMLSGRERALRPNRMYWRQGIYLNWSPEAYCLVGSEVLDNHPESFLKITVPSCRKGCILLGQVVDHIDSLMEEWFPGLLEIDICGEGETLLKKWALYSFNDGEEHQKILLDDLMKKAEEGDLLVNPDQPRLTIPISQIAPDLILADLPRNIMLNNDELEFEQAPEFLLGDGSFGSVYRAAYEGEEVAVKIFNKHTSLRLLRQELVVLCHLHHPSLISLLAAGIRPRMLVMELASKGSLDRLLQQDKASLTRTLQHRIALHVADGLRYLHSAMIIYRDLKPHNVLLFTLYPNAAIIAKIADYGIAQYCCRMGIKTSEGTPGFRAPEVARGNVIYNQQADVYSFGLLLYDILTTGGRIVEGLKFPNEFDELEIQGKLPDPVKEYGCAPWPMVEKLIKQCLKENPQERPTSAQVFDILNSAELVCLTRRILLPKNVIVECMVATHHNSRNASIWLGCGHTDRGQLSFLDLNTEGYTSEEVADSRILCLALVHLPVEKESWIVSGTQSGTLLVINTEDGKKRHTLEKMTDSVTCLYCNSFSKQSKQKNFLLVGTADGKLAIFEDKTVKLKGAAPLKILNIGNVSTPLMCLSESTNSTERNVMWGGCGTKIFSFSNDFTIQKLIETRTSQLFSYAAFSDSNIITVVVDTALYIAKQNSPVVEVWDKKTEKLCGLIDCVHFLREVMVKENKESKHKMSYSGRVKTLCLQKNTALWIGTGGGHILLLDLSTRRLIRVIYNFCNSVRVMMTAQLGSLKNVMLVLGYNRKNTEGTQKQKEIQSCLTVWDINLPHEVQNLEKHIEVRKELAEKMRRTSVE

The term IC50 denotes the point on the concentration scale where inhibition reaches its midpoint. Regarding `O=C(NC1=C(Nc2ccc(F)cc2)C(=O)c2ccccc2C1=O)c1ccc(Cl)cc1`, the IC50 in assay [1] was 10.2 µM (active); at Caspase-3, 19 µM (active).
The corresponding values for `Oc1nc(Nc2ccc(F)cc2)cc2ccccc12` are 6.03 µM (active) and 4.77 µM (active).
Taken in the same sequence, the figures for `CN(C)c1cc(N/N=C\c2ccccc2)nc(N(C)C)n1` were 18.8 µM (active) and > 100 µM (inactive).
One may read the Ki as the equilibrium dissociation constant of an inhibitor or competing ligand from its target. Regarding `O=C1Nc2cc(-c3ccc(O)cc3)ccc2C1=Cc1ccc[nH]1`, the Ki in [2] is 0.00794 µM (active); in [3], > 3.16 µM (inactive); in assay [4] it was > 3.16 µM (inactive); at Aurora kinase A, > 1.58 µM (inactive); on LIM domain kinase 1, 2.51 µM (active); in assay [5], 0.0126 µM (active). The Ki in assay [6] is 1.26 µM (active); in [7], 0.0631 µM (active); in assay [8] it was > 2 µM (inactive); in [9], 0.631 µM (active).
Turning to `NC(COc1cncc(-c2ccc3c(c2)C(=Cc2ccc[nH]2)C(=O)N3)c1)Cc1ccccc1` (stereo unspecified), the Ki in assay [2] is 0.00631 µM (active); in assay [3], 0.02 µM (active); in assay [4], 0.000631 µM (active); at Aurora kinase A, 0.251 µM (active); on LIM domain kinase 1 it was 0.501 µM (active); in assay [5], 0.2 µM (active). Moreover, the Ki was 0.631 µM (active) in assay [6], 0.00158 µM (active) in assay [7], 0.000398 µM (active) in assay [8] and 0.00501 µM (active) in [9].
For the compound `O=C1Cc2cc(-c3ccccc3)cnc2N1`, the Ki was 20 µM (active) in assay [2]; 100 µM (active) in assay [3]; 25.1 µM (active) in [4]; 20 µM (active) on Aurora kinase A; 63.1 µM (active) on LIM domain kinase 1; 63.1 µM (active) in [5]. Besides, the Ki in [6] was 63.1 µM (active); in assay [7] it was 79.4 µM (active); in assay [8] it was 39.8 µM (active); in assay [9], 100 µM (active).
